Results taken from the NIST ThermoML archive (doi:10.1021/je800382b).
Values joined by “and” are separate entries in the source; they are usually repeats but may differ in a detail not shown here. Equal values may be shown once.

Tests used:
[1] = DTA
[2] = Molar enthalpy of transition or fusion; conditions: DSC
[3] = molar heat capacity at constant pressure; conditions: 101.33 kPa, Small sample (50 mg) DSC

c1ccc2cc3cc4ccccc4cc3cc2c1 [2,3-benzanthracene]
Conditions | Molar enthalpy of transition or fusion, Crystal 1 [kcal/mol] | Molar enthalpy of transition or fusion, Crystal 2 [kcal/mol] | Molar enthalpy of transition or fusion, Crystal 3 [kcal/mol] | Normal melting temperature, Crystal 1 [°C] | Triple point temperature, Crystal 2 [K] | Triple point temperature, Crystal 3 [K]
[1] | – | – | – | 353.1 | 581.9 | 398.1
[2] | 8.8 | 0.287 | 0.0263 | – | – | –

[3]
Conditions | molar heat capacity at constant pressure
258.1 K, Crystal 3 | 218.8 J/K/mol and 220.8 J/K/mol and 219.3 J/K/mol
268.3 K, Crystal 3 | 230.5 J/K/mol [middle of 4 runs]
278.5 K, Crystal 3 | 240.6 J/K/mol [middle of 4 runs]
288.7 K, Crystal 3 | 250.4 J/K/mol [middle of 4 runs]
298.9 K, Crystal 3 | 260.8 J/K/mol [middle of 4 runs]
299.3 K, Crystal 3 | 260.9 J/K/mol
309.1 K, Crystal 3 | 269.7 J/K/mol [middle of 4 runs]
309.3 K, Crystal 3 | 270.1 J/K/mol
319.2 K, Crystal 3 | 280.1 J/K/mol
319.4 K, Crystal 3 | 278 J/K/mol [middle of 4 runs]
329.1 K, Crystal 3 | 286.4 J/K/mol
329.6 K, Crystal 3 | 287.1 J/K/mol [middle of 4 runs]
339.1 K, Crystal 3 | 295.8 J/K/mol
339.8 K, Crystal 3 | 296.6 J/K/mol and 295.5 J/K/mol and 295.4 J/K/mol
349 K, Crystal 3 | 307.1 J/K/mol and 303.7 J/K/mol
350 K, Crystal 3 | 304.2 J/K/mol [middle of 4 runs]
359 K, Crystal 3 | 312.4 J/K/mol and 314.7 J/K/mol
368.9 K, Crystal 3 | 324.2 J/K/mol and 319.7 J/K/mol
378.9 K, Crystal 3 | 330.2 J/K/mol and 332.5 J/K/mol
388.8 K, Crystal 3 | 341.4 J/K/mol
408.7 K, Crystal 2 | 357.6 J/K/mol
418.6 K, Crystal 2 | 364.9 J/K/mol and 365.7 J/K/mol
428.6 K, Crystal 2 | 378.1 J/K/mol
438.5 K, Crystal 2 | 381.3 J/K/mol and 383.5 J/K/mol
448.5 K, Crystal 2 | 391.9 J/K/mol and 392.5 J/K/mol
458.4 K, Crystal 2 | 403 J/K/mol
468.4 K, Crystal 2 | 409.4 J/K/mol and 411.7 J/K/mol
478.3 K, Crystal 2 | 417.9 J/K/mol
488.2 K, Crystal 2 | 426.2 J/K/mol
498.2 K, Crystal 2 | 438.5 J/K/mol
508.1 K, Crystal 2 | 444.3 J/K/mol
518.1 K, Crystal 2 | 454.5 J/K/mol
528 K, Crystal 2 | 459.9 J/K/mol
538 K, Crystal 2 | 474.1 J/K/mol
547.9 K, Crystal 2 | 479.3 J/K/mol
557.8 K, Crystal 2 | 493.4 J/K/mol
647.32 K, Liquid | 505.18 J/K/mol
657.27 K, Liquid | 509.31 J/K/mol
667.21 K, Liquid | 513.42 J/K/mol

c1ccc2cc3cc4cc5ccccc5cc4cc3cc2c1 [2,3:6,7-dibenzanthracene]
[3], Crystal
Conditions | molar heat capacity at constant pressure
258.1 K | 264.5 J/K/mol and 265.5 J/K/mol and 267.2 J/K/mol
268.3 K | 275.7 J/K/mol and 277.2 J/K/mol and 277.1 J/K/mol
278.5 K | 288.9 J/K/mol and 287.1 J/K/mol and 287.5 J/K/mol
288.7 K | 299.7 J/K/mol and 299.2 J/K/mol
298.9 K | 311.6 J/K/mol and 311.5 J/K/mol and 311 J/K/mol
309.1 K | 322.1 J/K/mol and 322.4 J/K/mol and 322.3 J/K/mol
309.2 K | 324.4 J/K/mol
319.2 K | 338.9 J/K/mol
319.4 K | 332.5 J/K/mol and 333.2 J/K/mol and 332.1 J/K/mol
329.6 K | 345.7 J/K/mol and 346.5 J/K/mol and 344.5 J/K/mol
339.8 K | 356.2 J/K/mol and 354.9 J/K/mol and 355.1 J/K/mol
350 K | 365.5 J/K/mol and 367.2 J/K/mol and 366 J/K/mol
359 K | 384.6 J/K/mol
368.9 K | 394.9 J/K/mol
378.9 K | 406 J/K/mol
388.8 K | 411.4 J/K/mol
398.7 K | 427.1 J/K/mol
408.7 K | 425.7 J/K/mol
418.6 K | 436.8 J/K/mol
428.6 K | 450.1 J/K/mol
438.5 K | 457.6 J/K/mol
448.5 K | 466.7 J/K/mol
458.4 K | 476.5 J/K/mol
468.3 K | 481.6 J/K/mol
478.3 K | 497.2 J/K/mol
488.2 K | 501.9 J/K/mol
498.2 K | 509.1 J/K/mol
508.1 K | 518.2 J/K/mol
518.1 K | 527.8 J/K/mol
528 K | 529.1 J/K/mol
537.9 K | 549.1 J/K/mol
547.9 K | 552.3 J/K/mol
557.8 K | 558.6 J/K/mol
567.8 K | 566.7 J/K/mol
577.7 K | 575.7 J/K/mol
587.7 K | 578.8 J/K/mol
597.6 K | 592.5 J/K/mol
